Laboratory results taken from patent US8952024B2, “Herbicidal pyrimidone derivatives” (E I du Pont de Nemours and Company, priority 2009, dated 2015).

Columns and labels:
Experiment in all cases: Test B pre-/postemergence plant response
Format in all cases: in vivo
[1] = system: green foxtail (Setaria viridis)
Excerpt: (§1) Seeds of plant species selected from blackgrass (Alopecurus myosuroides), downy bromegrass (Bromus tectorum), green foxtail (Setaria viridis), Italian ryegrass (Lolium multiflorum), wheat (Triticum aestivum), wild oat (Avena fatua), deadnettle (henbit deadnettle, Lamium amplexicaule), galium (catchweed bedstraw, Galium aparine), bermudagrass (Cynodon dactylon), Surinam grass (Brachiaria decumbens), cocklebur (Xanthium strumarium), corn (Zea mays), large crabgrass (Digitaria sanguinalis), woolly cupgrass (Eriochloa villosa), giant foxtail (Setaria faberii), goosegrass (Eleusine indica), johnsongrass (Sorghum halepense), kochia (Kochia scoparia), lambsquarters (Chenopodium album), morningglory (Ipomoea coccinea), nightshade (eastern black nightshade, Solanum ptycanthum), yellow nutsedge (Cyperus esculentus), pigweed (Amaranthus retroflexus), ragweed (common ragweed, Ambrosia elatior), Russian thistle (Salsola kali), soybean (Glycine max), sunflower (common oilseed sunflower, Helianthus annuus) and velvetleaf (Abutilon theophrasti) were planted into a blend of loam soil and sand and treated preemergence with test compounds formulated in a non-phytotoxic solvent mixture which included a surfactant.
(§2) At the same time, plants selected from these crop and weed species and also winter barley (Hordeum vulgare), canarygrass (Phalaris minor), chickweed (Stellaria media) and windgrass (Apera spica-venti) were planted in pots containing Redi-Earth® planting medium (Scotts Company, 14111 Scottslawn Road, Marysville, Ohio 43041) comprising spaghnum peat moss, vermiculite, wetting agent and starter nutrients and treated with postemergence applications of some of the test chemicals formulated in the same manner. Plants ranged in height from 2 to 18 cm (1- to 4-leaf stage) for postemergence treatments.
(§3) Treated plants and controls were maintained in a greenhouse for 13 to 15 days, after which time all treated plants were visually evaluated and compared to controls. Plant response ratings, summarized in Table B, are based on a scale of 0 to 100 where 0 is no effect and 100 is complete control. A dash (-) response means no test result.

[2] = system: velvetleaf (Abutilon theophrasti)
Excerpt: as §1, §2, §3

[3] = system: Surinam grass (Brachiaria decumbens)
Excerpt: as §1, §2, §3

wild oat (Avena fatua) = system: wild oat (Avena fatua)
Excerpt: as §1, §2, §3

kochia (Kochia scoparia) = system: kochia (Kochia scoparia)
Excerpt: as §1, §2, §3

[4] = system: pigweed (Amaranthus retroflexus)
Excerpt: as §1, §2, §3

[5] = system: Italian ryegrass (Lolium multiflorum)
Excerpt: as §1, §2, §3

[6] = system: yellow nutsedge (Cyperus esculentus)
Excerpt: as §1, §2, §3

corn (Zea mays) = system: corn (Zea mays)
Excerpt: as §1, §2, §3

[7] = system: large crabgrass (Digitaria sanguinalis)
Excerpt: as §1, §2, §3

soybean (Glycine max) = system: soybean (Glycine max)
Excerpt: as §1, §2, §3

[8] = system: blackgrass (Alopecurus myosuroides)
Excerpt: as §1, §2, §3

[9] = system: bermudagrass (Cynodon dactylon)
Excerpt: as §1, §2, §3

[10] = system: cocklebur (Xanthium strumarium)
Excerpt: as §1, §2, §3

[11] = system: downy bromegrass (Bromus tectorum)
Excerpt: as §1, §2, §3

[12] = system: ragweed (common ragweed, Ambrosia elatior)
Excerpt: as §1, §2, §3

[13] = system: lambsquarters (Chenopodium album)
Excerpt: as §1, §2, §3

[14] = Postemergence, 31 g ai/ha, scale 0 to 100 (0 no effect, 100 complete control)
[15] = Postemergence, 62 g ai/ha, scale 0 (no effect) to 100 (complete control), 13 to 15 days
[16] = Postemergence, 125 g ai/ha, visual rating after 13 to 15 days, scale 0 (no effect) to 100 (complete control)
[17] = Postemergence, 250 g ai/ha, scale 0 to 100
[18] = Preemergence, 31 g ai/ha, scale 0 to 100 (0 no effect, 100 complete control)
[19] = Preemergence, 62 g ai/ha, scale 0 to 100, 0 no effect, 100 complete control
[20] = Preemergence, 125 g ai/ha, 0 to 100 scale
[21] = 250 g ai/ha, Preemergence, 0 to 100 scale

2-(3,5-difluorophenyl)-5-[(2-hydroxy-4-oxobicyclo[3.2.1]oct-2-en-3-yl)carbonyl]-3-(2-methoxyethyl)-4(3H)-pyrimidinone [Compound 243]
98: Velvetleaf plant response rating [2, 17] | Plant response rating, Velvetleaf [2, 18] | Soybean plant response rating (soybean (Glycine max); [17]) | Plant response rating, Bermudagrass ([9]; Postemergence, 125 g ai/ha, scale 0 to 100 (0 no effect, 100 complete control), 13 to 15 days) | Bermudagrass plant response rating [9, 17] | Plant response rating, Bermudagrass [9, 18]
35: Plant response rating, Foxtail, Green [1, 14] | Plant response rating, Cocklebur [10, 16]
80: Plant response rating, Foxtail, Green [1, 16] | Plant response rating, Pigweed [4, 14] | Nutsedge, Yellow plant response rating [6, 20] | Corn plant response rating (corn (Zea mays); [17]) | Plant response rating, Crabgrass, Large [7, 15] | Plant response rating, Soybean (soybean (Glycine max); [21]) | Plant response rating, Lambsquarters [13, 15] | Plant response rating, Lambsquarters [13, 16]
0: Plant response rating, Foxtail, Green [1, 18] | Plant response rating, Foxtail, Green [1, 19] | Plant response rating, Surinam Grass [3, 18] | Plant response rating, Oat, Wild (wild oat (Avena fatua); [14]) | Plant response rating, Oat, Wild (wild oat (Avena fatua); [18]) | Plant response rating, Oat, Wild (wild oat (Avena fatua); [19]) | Oat, Wild plant response rating (wild oat (Avena fatua); [20]) | Plant response rating, Ryegrass, Italian [5, 14] | Plant response rating, Ryegrass, Italian [5, 15] | Plant response rating, Ryegrass, Italian [5, 18] | Plant response rating, Ryegrass, Italian [5, 19] | Ryegrass, Italian plant response rating [5, 20] | Plant response rating, Nutsedge, Yellow [6, 18] | Plant response rating, Corn (corn (Zea mays); [18]) | Plant response rating, Corn (corn (Zea mays); [19]) | Corn plant response rating (corn (Zea mays); [20]) | Plant response rating, Crabgrass, Large [7, 18] | Plant response rating, Soybean (soybean (Glycine max); [18]) | Plant response rating, Blackgrass [8, 14] | Plant response rating, Blackgrass [8, 15] | Plant response rating, Blackgrass [8, 18] | Plant response rating, Blackgrass [8, 19] | Plant response rating, Cocklebur [10, 14] | Plant response rating, Cocklebur [10, 15] | Plant response rating, Cocklebur [10, 18] | Plant response rating, Bromegrass, Downy [11, 18] | Plant response rating, Bromegrass, Downy [11, 19]
75: Plant response rating, Surinam Grass [3, 16] | Plant response rating, Corn (corn (Zea mays); [16]) | Plant response rating, Soybean (soybean (Glycine max); [15]) | Plant response rating, Ragweed [12, 15] | Plant response rating, Ragweed [12, 16] | Plant response rating, Lambsquarters [13, 14]
95: Foxtail, Green plant response rating [1, 17] | Plant response rating, Surinam Grass [3, 21] | Surinam Grass plant response rating [3, 20] | Plant response rating, Nutsedge, Yellow [6, 21] | Crabgrass, Large plant response rating [7, 17] | Plant response rating, Bermudagrass [9, 15] | Lambsquarters plant response rating [13, 17]
65: Plant response rating, Surinam Grass [3, 15] | Cocklebur plant response rating [10, 20]
100: Plant response rating, Velvetleaf [2, 21] | Plant response rating, Velvetleaf [2, 19] | Velvetleaf plant response rating [2, 20] | Plant response rating, Kochia (kochia (Kochia scoparia); [21]) | Plant response rating, Kochia (kochia (Kochia scoparia); [19]) | Kochia plant response rating (kochia (Kochia scoparia); [20]) | Plant response rating, Pigweed [4, 21] | Plant response rating, Pigweed [4, 16] | Pigweed plant response rating [4, 17] | Plant response rating, Pigweed [4, 19] | Pigweed plant response rating [4, 20] | Plant response rating, Crabgrass, Large [7, 21] | Crabgrass, Large plant response rating [7, 20] | Plant response rating, Bermudagrass [9, 21] | Plant response rating, Bermudagrass [9, 19] | Bermudagrass plant response rating [9, 20] | Plant response rating, Cocklebur [10, 21] | Plant response rating, Ragweed [12, 21] | Ragweed plant response rating [12, 17] | Ragweed plant response rating [12, 20] | Plant response rating, Lambsquarters [13, 21] | Plant response rating, Lambsquarters [13, 18] | Plant response rating, Lambsquarters [13, 19] | Lambsquarters plant response rating [13, 20]
30: Plant response rating, Ryegrass, Italian [5, 16] | Plant response rating, Bromegrass, Downy [11, 15]
10: Plant response rating, Kochia (kochia (Kochia scoparia); [14]) | Plant response rating, Corn (corn (Zea mays); [21]) | Plant response rating, Soybean (soybean (Glycine max); [19]) | Plant response rating, Bromegrass, Downy [11, 21]
55: Plant response rating, Surinam Grass [3, 14] | Oat, Wild plant response rating (wild oat (Avena fatua); [17]) | Plant response rating, Ragweed [12, 18]
70: Nutsedge, Yellow plant response rating [6, 17] | Plant response rating, Crabgrass, Large [7, 14] | Plant response rating, Soybean (soybean (Glycine max); [14]) | Blackgrass plant response rating [8, 17] | Plant response rating, Ragweed [12, 14]
45: Plant response rating, Surinam Grass [3, 19] | Ryegrass, Italian plant response rating [5, 17] | Plant response rating, Nutsedge, Yellow [6, 19] | Plant response rating, Corn (corn (Zea mays); [15]) | Cocklebur plant response rating [10, 17]
20: Plant response rating, Nutsedge, Yellow [6, 14] | Blackgrass plant response rating [8, 20]
85: Plant response rating, Velvetleaf [2, 14] | Plant response rating, Velvetleaf [2, 15] | Surinam Grass plant response rating [3, 17] | Kochia plant response rating (kochia (Kochia scoparia); [17]) | Plant response rating, Pigweed [4, 15] | Plant response rating, Crabgrass, Large [7, 16] | Plant response rating, Soybean (soybean (Glycine max); [16])
5: Foxtail, Green plant response rating [1, 20] | Plant response rating, Oat, Wild (wild oat (Avena fatua); [15]) | Plant response rating, Bromegrass, Downy [11, 14] | Bromegrass, Downy plant response rating [11, 20]
60: Plant response rating, Oat, Wild (wild oat (Avena fatua); [21]) | Plant response rating, Nutsedge, Yellow [6, 16]
50: Plant response rating, Pigweed [4, 18] | Bromegrass, Downy plant response rating [11, 17]
40: Plant response rating, Foxtail, Green [1, 15] | Plant response rating, Oat, Wild (wild oat (Avena fatua); [16]) | Plant response rating, Ryegrass, Italian [5, 21] | Plant response rating, Blackgrass [8, 21] | Plant response rating, Blackgrass [8, 16] | Plant response rating, Bromegrass, Downy [11, 16]
25: Plant response rating, Kochia (kochia (Kochia scoparia); [16]) | Plant response rating, Nutsedge, Yellow [6, 15] | Plant response rating, Cocklebur [10, 19]
15: Plant response rating, Kochia (kochia (Kochia scoparia); [15]) | Plant response rating, Kochia (kochia (Kochia scoparia); [18]) | Plant response rating, Corn (corn (Zea mays); [14])
90: Plant response rating, Velvetleaf [2, 16] | Plant response rating, Crabgrass, Large [7, 19] | Plant response rating, Bermudagrass [9, 14] | Plant response rating, Ragweed [12, 19]
